What was measured:
[1] = tested on: IL-12 induced Th1 differentiation; test: IL-12 dependent in vitro T-helper cell (Th1) differentiation assay; assay type: cell-based; conditions: 168 h, inhibition of IL-12 induced Th1 differentiation as defined by IFN-γ production upon secondary stimulation with anti-CD3 alone, splenic T cells, anti-CD3 and 5 U/ml IL-12, seven days
Description: This example illustrates the inventive compounds' ability to suppress Th1 differentiation in vitro by blocking IL-12 signaling. Each of compounds [A through Y] were tested in an IL-12 dependent in vitro T-helper cell differentiation assay as described in LeGross et al., J. Exp. Med., 172:921-929 (1990). Recombinant IL-12 was used to induce Th1 differentiation. Splenic T cells were purified utilizing the antibodies RA3-3A1/6.1 (anti-B220), J11d and MAR18.5 (anti-rat kappa chain) to deplete the B cells by magnetic bead separation, as described in Coon et al, J. Immuno., 163:6567-6574 (1989). Splenic T cells were stimulated at 5×10^5/ml with insoluble anti-CD3 alone (145-2C11, Pharmingen, San Diego, Calif.), or anti-CD3 and 5 U/ml IL-12, with and without each inventive compound. After seven days, equal numbers of viable cells were restimulated for 24 hours with anti-CD3 without the inventive compounds, and the supernatants were collected and assayed for IFN-γ production. IFN-γ and IL-4 levels were measured by ELISA test specific for IFN-γ and IL-4.
Th1 differentiation was induced by culturing anti-CD3 stimulated T cells in the presence of exogenous IL-12. […] It was observed that the presence of the tested compounds during T cell activation inhibited Th1 differentiation, which had been enhanced by the addition of exogenous IL-12. The values in the “IC50 μM” column were determined by measuring the inhibition of IL-12 induced Th1 differentiation as defined by IFN-γ production upon secondary stimulation with anti-CD3 alone. None of the compounds affected the viability or recovery of T cells after one week of culture

[2] = tested on: IL-4 induced T2 differentiation; test: T2 differentiation assay (T0 cells stimulated in the presence of IL-4); assay type: cell-based; conditions: for IC50: T0 cells stimulated in the presence of IL-4, IL-4 secretion as readout; for IL-4 production of resulting effector cells / activation and proliferation of resulting effector cells: T0 cells stimulated in the presence of IL-4 and compound
Description: (R)-7,8-Dihydro-3-(5-hydroxyhexyl)-1-methyl-1H-imidazo[2,1-f]-purine-2,4(3H,6H)-dione (CT-13430) (see Example 1) and (R)-3-(5-Hydroxyhexyl)-1-methyl-6,7,8,9-tetrahydro-pyrimido[2,1-f]purine-2,4(1H,3H)-dione (CT-13431) (see Example 4) were tested to determine their ability to block the differentiation of T0 cells to T2 effectors as judged by their relative inability to secrete the canonical T2 effector cytokine, IL-4, following treatment with the compounds. In a series of experiments analogous to the T1 differentiation assay of Example 10 (in which T0 cells were induced to become T1 effectors by polyclonal stimulation in the presence of IL-12), the above compounds were effective in a T2 differentiation assay in which T0 cells are stimulated in the presence of IL-4, which affects T2 differentiation.

| Structure (SMILES) | IC50 [1] | IC50 [2] | IL-4 production of resulting effector cells [2] | activation and proliferation of resulting effector cells [2] |
| --- | --- | --- | --- | --- |
| C[C@H](CCCCn1c(=O)c2c(nc3n2CCCN3)n(C)c1=O)N(C)C [compound 30267] | 34 µM |  |  |  |
| CC(=O)N1CCn2c1nc1c2c(=O)n(CCCC[C@@H](C)N)c(=O)n1C [compound 30259] | 15 µM |  |  |  |
| C[C@@H](O)CCCCn1c(=O)c2nc3n(c2n(C)c1=O)CCN3 [compound 30268, (R)-3-(5-hydroxyhexyl)-1-methyl-1,6,7,8-tetrahydro-2H-imidazo[1,2-e]-purine-2,4(3H)-dione] | 20 µM |  |  |  |
| C[C@@H](O)CCCCn1c(=O)c2c(nc3n2CCCN3)n(C)c1=O [compound 13431, (R)-3-(5-Hydroxyhexyl)-1-methyl-6,7,8,9-tetrahydro-pyrimido[2,1-f]purine-2,4(1H,3H)-dione] | 11 µM | 13 µM | deficient in IL-4 production | proliferated normally |
| C[C@@H](O)CCCCn1c(=O)c2c(nc3n2CCNC3)n(C)c1=O [compound 30099, (R)-3-(5-hydroxyhexyl)-1-methyl-6,7,8,9-tetrahydro-pyrazino[2,1-f]purine-2,4(1H,3H)-dione] | 22 µM |  |  |  |
| CC(=O)N1CCn2c1nc1c2c(=O)n(CCCC[C@H](C)O)c(=O)n1C [compound 30256] | 24 µM |  |  |  |
| C[C@@H](CCCCn1c(=O)c2c(nc3n2CCCN3)n(C)c1=O)N(C)C [compound 30264] | 39 µM |  |  |  |
| C[C@@H](CCCCn1c(=O)c2c(nc3n2CCCN3C)n(C)c1=O)N(C)C [compound 30262] | 34 µM |  |  |  |
| C[C@@H](O)CCCCn1c(=O)c2c(nc3n2CCS3)n(C)c1=O [compound 13421, (R)-6,7-Dihydro-3-(5-hydroxyhexyl)-1-methyl-thiazolo[2,3-f]purine-2,4 (1H,3H)-dione] | 33 µM |  |  |  |
| CC(=O)N1CCn2c1nc1c2c(=O)n(CCCC[C@@H](C)O)c(=O)n1C [compound 30260, (R)-3-(5-Hydroxyhexyl)-1-methyl-6,7-dihydro-2,4-dioxo-8-N-acetyl-1H-imidazo[2,1-f]-purine] | 9 µM |  |  |  |

Now from value to molecule, other results behind:

| IC50 [1] | IC50 [2] | Structure (SMILES) | IL-4 production of resulting effector cells [2] | activation and proliferation of resulting effector cells [2] |
| --- | --- | --- | --- | --- |
| 16 µM |  | C[C@@H](C#N)CCCCn1c(=O)c2c(nc3n2CCN3)n(C)c1=O [compound 30255, (R)-3-(5-Cyanohexyl)-7,8-dihydro-1-methyl-1H-imidazo[2,1-f]-purine-2,4(3H,6H)-dione] |  |  |
| 90 µM |  | C[C@H](N)CCCCn1c(=O)c2c(nc3n2CCCN3)n(C)c1=O [compound 30263] |  |  |
| 17 µM | 14 µM | C[C@@H](O)CCCCn1c(=O)c2c(nc3n2CCN3)n(C)c1=O [compound 13430, (R)-7,8-Dihydro-3-(5-hydroxyhexyl)-1-methyl-1H-imidazo[2,1-f]-purine-2,4(3H,6H)-dione] | deficient in IL-4 production | proliferated normally |
| 53 µM |  | C[C@H](O)CCCCn1c(=O)c2c(nc3n2CCCN3)n(C)c1=O [compound 30269] |  |  |
| 14 µM |  | C[C@@H](C#N)CCCCn1c(=O)c2c(nc3n2CCCN3)n(C)c1=O [compound 30146, (R)-3-(5-cyanohexyl)-1-methyl-6,7,8,9-tetrahydro-pyrimido[2,1-f]purine-2,4(1H,3H)-dione] |  |  |

Reference: patent US7247630B2, “Uses of tricyclic compounds” (Cell Therapeutics, Inc., priority 2000, dated 2007)
